The target of series [1] is T1, immunoproteasome subunit LMP7 (Homo sapiens, UniProt P28062).
T1 construct: Lysate from the human acute lymphoblastic leukemia cell line, MOLT-4; endogenous in cells; host or cells: MOLT-4
Nature of the series: Proteasome active-site ELISA (ProCISE), LMP7, MOLT-4 lysate. Type of series: biochemical. Particulars: MOLT4 lysate, 1 h continuous treatment, 25° C. The method, boiled down:
(§1)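 MOLT-4 cell lysate treated 1 h at 25 °C with compound; probe-bound subunits denatured, pulled down on streptavidin beads and detected with subunit-specific antibodies plus HRP chemiluminescence.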
(An ELISA detects its analyte on a solid surface through an enzyme-linked reagent.)

The target of series [2] is human 20S immunoproteasome (i20S) (Homo sapiens, UniProt P28062). Nature of the series: 20S proteasome assay, chymotrypsin-like activity (succinyl-Leu-Leu-Val-Tyr-AMC), i20S. Type of series: biochemical. As to conditions: LLVY substrate, 1 h continuous. An excerpt:
(§2) Assay buffer consisted of TE buffer [20 mmol/L Tris (pH 8.0), 0.5 mmol/L EDTA] with (20S) or without (cell lysate) 0.03% SDS. Reactions were initiated by enzyme or lysate addition and monitored for AMC product formation at 27jC with a plate-based spectofluorometer (Tecan).

A short description of the next series: Solubility pH 7. Particulars: pH 7, aqueous buffer.
For series [3], the target named is human constitutive 20S proteasome (c20S) (Homo sapiens, UniProt P28074). Nature of the series: 20S proteasome assay, chymotrypsin-like activity (succinyl-Leu-Leu-Val-Tyr-AMC), c20S. Type of series: biochemical. Particulars: LLVY substrate, 1 h continuous.
Text: as §2

For series [4], the target named is T2, proteasome subunit β5 (beta5) (Homo sapiens, UniProt P28074).
T2 construct: Lysate from the human acute lymphoblastic leukemia cell line, MOLT-4; endogenous in cells; host or cells: MOLT-4
In words: Proteasome active-site ELISA (ProCISE), beta5, MOLT-4 lysate. Type of series: biochemical. Particulars: MOLT4 lysate, human, 1 h continuous treatment, 25° C. The method, boiled down: as §1

This note sets out measurements from patent USRE47302E1 (ONYX THERAPEUTICS INC., priority 2013, dated 2019).

Each structure is given as a SMILES string. pIC50: −log10 of the molar value. ≈ marks a conversion by molar mass, not a printed value.

For `C[C@@H](NC(=O)C1CCOCC1)C(=O)N[C@@H](Cc1ccc(S(C)(=O)=O)cc1)C(=O)N[C@@H](CC1CCCC1)C(=O)[C@@]1(C)CO1` [Compound C-1051, N-((R)-1-(((S)-1-(((S)-3-cyclopentyl-1-((R)-2-methyloxiran-2-yl)-1-oxopropan-2-yl)amino)-3-(4-(methylsulfonyl)phenyl)-1-oxopropan-2-yl)amino)-1-oxopropan-2-yl)tetrahydro-2H-pyran-4-carboxamide], the pIC50 in series [1] was 7.04; in series [2], 7.35; in series [3] it was 6.01; in series [4] it was 6.15. The concentration in solution in the series “Solubility pH 7” (solubility) was 0.702 mg/mL (≈ 1160 µM).
Take `COc1ccc(C[C@H](NC(=O)[C@@H](C)NC(=O)[C@@H]2CCCOC2)C(=O)N[C@@H](CC2CCCC2)C(=O)[C@@]2(C)CO2)cc1` [Compound C-1052, (R)-N-((R)-1-(((S)-1-(((S)-3-cyclopentyl-1-((R)-2-methyloxiran-2-yl)-1-oxopropan-2-yl)amino)-3-(4-methoxyphenyl)-1-oxopropan-2-yl)amino)-1-oxopropan-2-yl)tetrahydro-2H-pyran-3-carboxamide]: the pIC50 was 6.99 in series [1], 7.35 in series [2], 6.29 in series [3] and 6.29 in series [4]. This compound displayed a solubility in “Solubility pH 7” of 0.706 mg/mL (≈ 1270 µM).
For `COc1ccc(C[C@H](NC(=O)[C@@H](C)NC(=O)[C@H]2CCCOC2)C(=O)N[C@@H](CC2CCCC2)C(=O)[C@@]2(C)CO2)cc1` [Compound C-1053, (S)-N-((R)-1-(((S)-1-(((S)-3-cyclopentyl-1-((R)-2-methyloxiran-2-yl)-1-oxopropan-2-yl)amino)-3-(4-methoxyphenyl)-1-oxopropan-2-yl)amino)-1-oxopropan-2-yl)tetrahydro-2H-pyran-3-carboxamide], the pIC50 in series [1] was 6.57; in series [2], 7.00; in series [3] it was 5.42; in series [4], 5.34. In the series “Solubility pH 7”, this compound had a solubility of 0.648 mg/mL (≈ 1160 µM).
`C[C@H](NC(=O)CN1CCOCC1)C(=O)N[C@@H](Cc1ccc(S(N)(=O)=O)cc1)C(=O)N[C@@H](CC1CCCC1)C(=O)[C@@]1(C)CO1` [Compound C-1054, (S)-N-((S)-3-cyclopentyl-1-((R)-2-methyloxiran-2-yl)-1-oxopropan-2-yl)-2-((S)-2-(2-morpholinoacetamido)propanamido)-3-(4-sulfamoylphenyl)propanamide]: the pIC50 in series [1] was 6.88; in series [2] it was 7.12; in series [3], 6.18; in series [4], 6.09. Also, the solubility in the series “Solubility pH 7” is 2.86 mg/mL (≈ 4600 µM).
With `COc1ccc(C[C@H](NC(=O)[C@@H](C)NC(=O)C2COC2)C(=O)N[C@@H](CC2=CCCC2)C(=O)[C@@]2(C)CO2)cc1` [Compound C-1055, N-((R)-1-(((S)-1-(((S)-3-(cyclopent-1-en-1-yl)-1-((R)-2-methyloxiran-2-yl)-1-oxopropan-2-yl)amino)-3-(4-methoxyphenyl)-1-oxopropan-2-yl)amino)-1-oxopropan-2-yl)oxetane-3-carboxamide], the pIC50 is 6.02 in series [1], 6.83 in series [2], 5.35 in series [3] and 5.15 in series [4]. The amount in solution in “Solubility pH 7” (solubility) came to 1.3 mg/mL (≈ 2460 µM).
Regarding `COc1ccc(C[C@H](NC(=O)[C@@H](C)NC(=O)[C@H]2CC[C@@H](O)CC2)C(=O)N[C@@H](CC2=CCCC2)C(=O)[C@@]2(C)CO2)cc1` [Compound C-1056, (1s,4S)-N-((R)-1-(((S)-1-(((S)-3-(cyclopent-1-en-1-yl)-1-((R)-2-methyloxiran-2-yl)-1-oxopropan-2-yl)amino)-3-(4-methoxyphenyl)-1-oxopropan-2-yl)amino)-1-oxopropan-2-yl)-4-hydroxycyclohexanecarboxamide], the pIC50 in series [1] was 8.57; in series [2], 8.33; in series [3] it was 7.33; in series [4], 7.76. The compound further came in with a solubility in “Solubility pH 7” of 0.298 mg/mL (≈ 523 µM).
With `COc1ccc(C[C@H](NC(=O)[C@@H](C)NC(=O)[C@H]2CC[C@H](O)CC2)C(=O)N[C@@H](CC2=CCCC2)C(=O)[C@@]2(C)CO2)cc1` [Compound C-1057, (1r,4R)-N-((R)-1-(((S)-1-(((S)-3-(cyclopent-1-en-1-yl)-1-((R)-2-methyloxiran-2-yl)-1-oxopropan-2-yl)amino)-3-(4-methoxyphenyl)-1-oxopropan-2-yl)amino)-1-oxopropan-2-yl)-4-hydroxycyclohexanecarboxamide], the pIC50 is 7.47 in series [1], 8.28 in series [2], 6.23 in series [3] and 5.59 in series [4]. For the same compound, the concentration in solution in the series “Solubility pH 7” (solubility) came to 0.491 mg/mL (≈ 862 µM).
The matching figures for `COc1ccc(C[C@H](NC(=O)[C@@H](C)NC(=O)C2CCOCC2)C(=O)N[C@@H](CC2CCCC2)C(=O)[C@@]2(C)CO2)cc1O` [Compound C-1061, N-((R)-1-(((S)-1-(((S)-3-cyclopentyl-1-((R)-2-methyloxiran-2-yl)-1-oxopropan-2-yl)amino)-3-(3-hydroxy-4-methoxyphenyl)-1-oxopropan-2-yl)amino)-1-oxopropan-2-yl)tetrahydro-2H-pyran-4-carboxamide]: 7.15, 7.81, 6.12, 6.01 and 2.05 mg/mL (≈ 3580 µM).
The matching figures for `COc1ccc(C[C@H](NC(=O)[C@@H](C)NC(=O)C2CCOCC2)C(=O)N[C@@H](CC2=CCCC2)C(=O)[C@@]2(C)CO2)cc1O` [Compound C-1062, N-((R)-1-(((S)-1-(((S)-3-(cyclopent-1-en-1-yl)-1-((R)-2-methyloxiran-2-yl)-1-oxopropan-2-yl)amino)-3-(3-hydroxy-4-methoxyphenyl)-1-oxopropan-2-yl)amino)-1-oxopropan-2-yl)tetrahydro-2H-pyran-4-carboxamide]: 7.42, 7.69, 6.63, 6.41 and 0.14 mg/mL (≈ 245 µM).
With `COc1ccc(C[C@H](NC(=O)[C@@H](C)NC(=O)C2CC3(COC3)C2)C(=O)N[C@@H](CC2=CCCC2)C(=O)[C@@]2(C)CO2)cc1` [Compound C-1063, N-((R)-1-(((S)-1-(((S)-3-(cyclopent-1-en-1-yl)-1-((R)-2-methyloxiran-2-yl)-1-oxopropan-2-yl)amino)-3-(4-methoxyphenyl)-1-oxopropan-2-yl)amino)-1-oxopropan-2-yl)-2-oxaspiro[3.3]heptane-6-carboxamide], the pIC50 in series [1] was 7.04; in series [2], 7.83; in series [3], 6.77; in series [4] it was 6.35. The solubility in the series “Solubility pH 7” came to 1.31 mg/mL (≈ 2310 µM).
In the case of `COc1ccc(C[C@H](NC(=O)CNC(=O)CN2CCOCC2)C(=O)N[C@@H](Cc2ccccc2)C(=O)[C@@]2(C)CO2)cc1` [Compound C-1153, (S)-3-(4-methoxyphenyl)-N-((S)-1-((R)-2-methyloxiran-2-yl)-1-oxo-3-phenylpropan-2-yl)-2-(2-(2-morpholinoacetamido)acetamido)propanamide], the pIC50 was 6.68 in series [1], 6.56 in series [2], 5.61 in series [3] and 5.38 in series [4]. Besides, the concentration in solution in “Solubility pH 7” (solubility) was 3.27 mg/mL (≈ 5780 µM).
For `COc1ccc(C[C@H](NC(=O)[C@H](CO)NC(=O)CN2CCOCC2)C(=O)N[C@@H](Cc2ccccc2)C(=O)[C@@]2(C)CO2)cc1` [Compound C-1159, (S)-3-hydroxy-N-((S)-3-(4-methoxyphenyl)-1-(((S)-1-((R)-2-methyloxiran-2-yl)-1-oxo-3-phenylpropan-2-yl)amino)-1-oxopropan-2-yl)-2-(2-morpholinoacetamido)propanamide], in that order: 7.37, 7.37, 6.33, 6.34 and 1.91 mg/mL (≈ 3210 µM).
With `COc1ccc(C[C@H](NC(=O)[C@H](C)NC(=O)CN2CCOCC2)C(=O)N[C@@H](Cc2ccccc2)C(=O)[C@@]2(C)CO2)cc1OC` [Compound C-1160, (S)-3-(3,4-dimethoxyphenyl)-N-((S)-1-((R)-2-methyloxiran-2-yl)-1-oxo-3-phenylpropan-2-yl)-2-((S)-2-(2-morpholinoacetamido)propanamido)propanamide], the pIC50 in series [1] is 6.80; in series [2], 6.61; in series [3] it was 6.04; in series [4], 6.18. In “Solubility pH 7”, the solubility turned out to be 1.53 mg/mL (≈ 2500 µM).
Consider `C[C@H](NC(=O)CN1CCOCC1)C(=O)N[C@@H](Cc1ccc(N(C)C)cc1)C(=O)N[C@@H](Cc1ccccc1)C(=O)[C@@]1(C)CO1` [Compound C-1161, (S)-3-(4-(dimethylamino)phenyl)-N-((S)-1-((R)-2-methyloxiran-2-yl)-1-oxo-3-phenylpropan-2-yl)-2-((S)-2-(2-morpholinoacetamido)propanamido)propanamide], for which the pIC50 in series [1] is 7.29; in series [2], 6.84; in series [3], 6.09; in series [4] it was 6.39. Also, the solubility in “Solubility pH 7” was 2.11 mg/mL (≈ 3560 µM).
The matching figures for `COc1ccc(C[C@H](NC(=O)[C@H](C)NC(=O)CN2CCOCC2)C(=O)N[C@@H](Cc2ccc(O)cc2)C(=O)[C@@]2(C)CO2)cc1` [Compound C-1162, (S)-N-((S)-3-(4-hydroxyphenyl)-1-((R)-2-methyloxiran-2-yl)-1-oxopropan-2-yl)-3-(4-methoxyphenyl)-2-((S)-2-(2-morpholinoacetamido)propanamido)propanamide]: 7.36, 7.55, 5.79, 6.23 and 1.27 mg/mL (≈ 2130 µM).

A word on the pIC50: it is the negative decadic logarithm of the IC50, by convention in mol/L. A higher pIC50 goes with a low IC50. As usually defined, the solubility is the dissolved amount per volume that the medium holds. A lower solubility goes with a poorly soluble substance.
